# Measured values taken from PMC3390922 (The Journal of Neuroscience, 2010).
# Values joined by “and” are separate entries in the source; they are usually repeats but may differ in a detail not shown here. Equal entries are not always repeated. Structures can show the parent of a compound that is named as a salt.
# Key:
# D1/D5 dopamine receptors = test: Saturation binding of [3H]-SCH23390 to membranes; parameters: species or system mouse; conditions: membranes from C57Bl/6 mice (data not shown)
# D2/D3 dopamine receptors = test: Saturation binding of [3H]-raclopride to membranes; parameters: species or system mouse; conditions: membranes from C57Bl/6 mice (data not shown)
# [1] = target: α6* nAChRs (αCtxMII-sensitive, α6β2*) (Mus musculus, UniProt Q9ERK7+Q9R0W9)
# α6* nAChRs (αCtxMII-sensitive, α6β2*), sequence (Q9R0W9 31-494): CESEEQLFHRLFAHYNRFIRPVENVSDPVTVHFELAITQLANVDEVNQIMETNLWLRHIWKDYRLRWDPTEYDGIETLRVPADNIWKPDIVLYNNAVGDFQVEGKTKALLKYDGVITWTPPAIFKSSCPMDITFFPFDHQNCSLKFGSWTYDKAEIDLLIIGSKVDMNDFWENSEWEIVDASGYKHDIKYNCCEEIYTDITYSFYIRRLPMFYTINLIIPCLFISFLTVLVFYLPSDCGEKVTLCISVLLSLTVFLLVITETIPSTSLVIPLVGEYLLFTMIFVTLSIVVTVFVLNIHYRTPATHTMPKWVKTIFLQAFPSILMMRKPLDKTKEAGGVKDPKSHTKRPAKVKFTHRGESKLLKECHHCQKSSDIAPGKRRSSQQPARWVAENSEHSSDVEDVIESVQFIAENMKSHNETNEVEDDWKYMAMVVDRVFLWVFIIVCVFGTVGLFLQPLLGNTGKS
# α6* nAChRs (αCtxMII-sensitive, α6β2*), sequence (Q9ERK7 26-501): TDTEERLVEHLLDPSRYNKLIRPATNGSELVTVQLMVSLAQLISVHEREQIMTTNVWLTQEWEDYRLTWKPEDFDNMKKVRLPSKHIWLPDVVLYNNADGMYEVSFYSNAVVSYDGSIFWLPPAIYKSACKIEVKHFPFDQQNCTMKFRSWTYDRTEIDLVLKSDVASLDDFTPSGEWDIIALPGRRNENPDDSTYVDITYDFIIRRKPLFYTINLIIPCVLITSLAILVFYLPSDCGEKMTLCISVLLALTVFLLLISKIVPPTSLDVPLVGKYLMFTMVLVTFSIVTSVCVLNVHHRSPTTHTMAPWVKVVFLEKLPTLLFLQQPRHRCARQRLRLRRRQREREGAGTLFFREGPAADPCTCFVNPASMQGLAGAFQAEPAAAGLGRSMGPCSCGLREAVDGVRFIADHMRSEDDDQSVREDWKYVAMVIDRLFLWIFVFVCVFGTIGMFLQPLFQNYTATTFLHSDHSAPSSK
# α6* nAChRs (αCtxMII-sensitive, α6β2*), sequence (O70174 31-629, further chain): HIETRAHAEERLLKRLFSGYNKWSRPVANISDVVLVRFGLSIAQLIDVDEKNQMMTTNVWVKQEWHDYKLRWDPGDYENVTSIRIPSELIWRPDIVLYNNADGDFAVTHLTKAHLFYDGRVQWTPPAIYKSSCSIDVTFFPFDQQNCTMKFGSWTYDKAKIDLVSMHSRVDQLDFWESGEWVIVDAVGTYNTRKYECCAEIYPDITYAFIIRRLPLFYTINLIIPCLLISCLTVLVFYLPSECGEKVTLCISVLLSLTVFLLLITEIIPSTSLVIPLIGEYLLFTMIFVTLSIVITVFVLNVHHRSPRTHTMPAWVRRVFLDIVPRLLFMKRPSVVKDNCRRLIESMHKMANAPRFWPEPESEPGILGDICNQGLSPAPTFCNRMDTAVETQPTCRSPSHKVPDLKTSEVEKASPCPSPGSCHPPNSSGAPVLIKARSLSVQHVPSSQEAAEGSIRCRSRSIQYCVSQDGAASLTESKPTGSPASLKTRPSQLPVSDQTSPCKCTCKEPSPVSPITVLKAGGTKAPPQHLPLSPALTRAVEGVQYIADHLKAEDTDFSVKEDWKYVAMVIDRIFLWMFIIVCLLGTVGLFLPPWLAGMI
# α6* nAChRs (αCtxMII-sensitive, α6β2*), sequence (Q8BMN3 31-464, further chain): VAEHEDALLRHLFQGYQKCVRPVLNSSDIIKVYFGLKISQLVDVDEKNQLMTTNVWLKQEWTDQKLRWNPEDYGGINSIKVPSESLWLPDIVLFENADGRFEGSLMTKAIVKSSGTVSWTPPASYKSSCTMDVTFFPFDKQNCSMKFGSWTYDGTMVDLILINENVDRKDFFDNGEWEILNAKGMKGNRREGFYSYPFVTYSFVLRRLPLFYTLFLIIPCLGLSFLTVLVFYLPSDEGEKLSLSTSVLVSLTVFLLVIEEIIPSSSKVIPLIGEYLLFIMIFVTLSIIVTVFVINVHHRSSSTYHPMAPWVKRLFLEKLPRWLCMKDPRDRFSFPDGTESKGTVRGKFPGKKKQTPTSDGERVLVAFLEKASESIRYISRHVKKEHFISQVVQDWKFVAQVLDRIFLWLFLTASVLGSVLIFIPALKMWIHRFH
# [2] = target: α6* nAChRs (αCtxMII-sensitive) in α4KO/α6^L9′S mice (Mus musculus, UniProt Q9ERK7+Q9R0W9, L280S)
# α6* nAChRs (αCtxMII-sensitive) in α4KO/α6^L9′S mice, sequence (Q9ERK7 26-501, stated change not applied): as the sequence (Q9ERK7 26-501) above
# α6* nAChRs (αCtxMII-sensitive) in α4KO/α6^L9′S mice, sequence (Q8BMN3 31-464, further chain): as the sequence (Q8BMN3 31-464, further chain) above
# α6* nAChRs (αCtxMII-sensitive) in α4KO/α6^L9′S mice, sequence (Q9R0W9 31-494 L280S): as the sequence (Q9R0W9 31-494) above, with L250S counted along it
# [3] = test system: WT, α6^L9′S, α4KO, and α4KO/α6^L9′S mice; conditions: mouse, in vivo
# [4] = in vivo; cited from earlier work
# α6α4β2β3 nAChRs = conditions: cited from earlier work
# (non-α6) α4β2* nAChRs = (non-α6) α4β2* nAChRs (Mus musculus, UniProt O70174+Q9ERK7)
# (non-α6) α4β2* nAChRs, sequence (O70174 31-629): as the sequence (O70174 31-629, further chain) above
# (non-α6) α4β2* nAChRs, sequence (Q9ERK7 26-501): as the sequence (Q9ERK7 26-501) above
# [5] = target: α6* nAChRs (αCtxMII-sensitive) in α4KO mice (Mus musculus, UniProt Q9ERK7+Q9R0W9)
# α6* nAChRs (αCtxMII-sensitive) in α4KO mice, sequence (Q9ERK7 26-501): as above
# α6* nAChRs (αCtxMII-sensitive) in α4KO mice, sequence (Q8BMN3 31-464, further chain): as the sequence (Q8BMN3 31-464, further chain) above
# α6* nAChRs (αCtxMII-sensitive) in α4KO mice, sequence (Q9R0W9 31-494): as the sequence (Q9R0W9 31-494) above
# [6] = target: (non-α6) α4β2* nAChRs in α6^L9′S mice (Mus musculus, UniProt O70174+Q9ERK7)
# (non-α6) α4β2* nAChRs in α6^L9′S mice, sequence (O70174 31-629): as the sequence (O70174 31-629, further chain) above
# (non-α6) α4β2* nAChRs in α6^L9′S mice, sequence (Q9ERK7 26-501): as the sequence (Q9ERK7 26-501) above
# [7] = test system: DA release in striatal slices; parameters: species or system mouse
smiles,measurement,setting,value
CN1CCc2cc(Cl)c(O)cc2[C@@H](c2ccccc2)C1 [[^3H]-SCH23390],Kd,D1/D5 dopamine receptors,~0.1 nM
CCN1CCC[C@H]1CNC(=O)c1c(O)c(Cl)cc(Cl)c1OC [[^3H]-raclopride],Kd,D2/D3 dopamine receptors,~2 nM
"CN1CCC[C@H]1c1cccnc1 [nicotine, (-)-nicotine tartrate]",Rmax,[1],4.6 ± 0.3 units and 3.2 ± 0.3 units
same,Rmax,[2],5.24 ± 0.24 units and 4.16 ± 0.06 units
same,potency and efficacy for locomotor activation,[3],consistently reduced
same,peak locomotor response,"[3]; ip, 0.2 mg/kg",93 ± 14 ambulations/min and 53 ± 4 ambulations/min
same,concentration in brain CSF,[4],100 to 500 nM
same,EC50,α6α4β2β3 nAChRs,230 nM
same,Rmax,(non-α6) α4β2* nAChRs,15.8 ± 0.5 units and 14.5 ± 0.5 units
same,Rmax,[5],3.83 ± 0.13 units and 3.63 ± 0.15 units
same,Rmax,[6],7.8 ± 0.2 units and 7.4 ± 0.4 units
NC1=N[C@H](O)[C@H]2[C@H]3O[C@]4(O)O[C@@H]([C@@H](O)[C@@]2(N1)[C@@H]4O)[C@]3(O)CO [tetrodotoxin],effect on evoked DA release responses,[7],blocked
